In patent publication US8883963B2 (Cadila Healthcare Limited, priority 2007, dated 2014):
Starred links: 1 amine or outer side, 2 acyl side, 3 side chain; linkers in the order of their positions; H or OH if unused. Non-standard residues stand in square brackets, D forms with d. Residues, ends and D or L forms follow the SMILES beside them. ξ: configuration not given here. *: point of attachment. X4 = CCc1cc(OC)ccc1-c1ccc(CC(CNC(CCCc2ccccc2F)C(N)=O)N*)cc1; X7 = CCc1cc(OC)ccc1-c1ccc(CC(CNC(CCCc2ccccc2)C(N)=O)N*)cc1; ξBip(2'-Et-4'-OMe) = CCc1cc(OC)ccc1-c1ccc(CC(N)C(=O)O)cc1; X6 = O=C(C(CCCc1ccc(Cl)cc1Cl)N[*:1])[*:2]; ξαMePhe(2-F) = CC(N)(Cc1ccccc1F)C(=O)O; aThr = C[C@H](O)[C@H](N)C(=O)O; Aib = CC(C)(N)C(=O)O

Target: T1, human glucagon receptor (Homo sapiens, UniProt P47871)
T1 construct: The full-length cDNA was cloned in pcDNA3.1 (Invitrogen); expressed in transfected cells
T1 sequence (P47871 26-477): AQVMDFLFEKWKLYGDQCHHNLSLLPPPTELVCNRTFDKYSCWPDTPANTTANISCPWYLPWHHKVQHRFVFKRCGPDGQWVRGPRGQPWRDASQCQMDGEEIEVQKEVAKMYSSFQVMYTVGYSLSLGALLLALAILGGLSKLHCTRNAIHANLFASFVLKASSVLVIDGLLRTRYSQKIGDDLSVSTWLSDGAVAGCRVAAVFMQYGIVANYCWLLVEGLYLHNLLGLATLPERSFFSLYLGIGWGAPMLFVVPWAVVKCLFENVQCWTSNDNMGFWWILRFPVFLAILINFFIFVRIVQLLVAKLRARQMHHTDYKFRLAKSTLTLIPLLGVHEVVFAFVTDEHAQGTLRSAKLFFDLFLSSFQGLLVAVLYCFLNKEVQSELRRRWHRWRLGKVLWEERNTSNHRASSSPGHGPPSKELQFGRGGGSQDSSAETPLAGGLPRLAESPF
Assay: In vitro human glucagon antagonist activity (inhibition of cAMP production) in CHO/human glucagon R cells
Assay type: cell-based
Conditions: with saturated concentration of glucagon peptide
Procedure: The CHO-K1 cells (CRL 9618) were obtained from American Type Culture Collection (Rockville, Md.). CHO cells were grown in Ham's F12 medium containing L-Glutamine (2 mM), HEPES (25 mM), NaHCO3 (1.1 g/L) and supplemented with newborn Calf Serum (NBCS; 10%), Penicillin (50 U/ml (v/v)) and Streptomycin (50 ug/ml (v/v)). Cells were split every 3 days 1:8.
The full-length cDNA was cloned in pcDNA3.1 (Invitrogen). […] Clones expressing the receptor were generated by G418 (800 μg/ml active, Sigma) selection. The stable clones were thereafter maintained at 500 ug/ml (G418). The selected clone was used between passages 9-25 for cAMP assays.
The cells were trypsinized using 2 ml of TPVG (0.25% trypsin, 0.53 mM EDTA, 1.38-mM glucose). The trypsin was inactivated using Ham's F12 medium containing 10% NBCS and the cells were suspended in 2 ml of complete medium. […] The medium was aspirated off from the 12 well plate and the cells were washed once using Ham's F12 (plain). The cells were incubated at 37° C. with 500 ul of Ham's F12+1% BSA+0.125 mM RO-20 for 30 min. […] After the incubation, the medium was removed and cells were washed once with plain Ham's F12. Subsequently, the cells were lysed by adding 500 ul of ice cold 0.1 N HCl to each well and shaking for 30 minutes at 200 rpm. The cells were then scrapped, the lysate was collected in micro centrifuge tubes and centrifuged at 12000 rpm for 10 min to remove the debris. 300 ul of supernatant from each micro-centrifuge tube was then removed into a glass tube and dried under N2 for 30 min, for cAMP estimation. The total cAMP was estimated from the sample according to the manufacturer's protocol using Cyclic AMP immunoassay kit (R&D systems, Minneapolis. MN). The remaining supernatant is used to determine the protein concentration using micro BCA (Sigma). Data is calculated as percent of control (Vehicle: water) and expressed as Mean+SD.

Compound	Human Glucagon receptor antagonistic activity shown as inhibition of cAMP production of Glucagon peptide (1 nM test compound) [pmol/ml/μg prt]	Human Glucagon receptor antagonistic activity shown as inhibition of cAMP production of Glucagon peptide (10 nM test compound) [pmol/ml/μg prt]	Human Glucagon receptor antagonistic activity shown as inhibition of cAMP production of Glucagon peptide (100 nM test compound) [pmol/ml/μg prt]	Human Glucagon receptor antagonistic activity shown as inhibition of cAMP production of Glucagon peptide (1 μM test compound) [pmol/ml/μg prt]	Human Glucagon receptor antagonistic activity shown as inhibition of cAMP production of Glucagon peptide (10 μM test compound) [pmol/ml/μg prt]
CCc1cc(OC)ccc1-c1ccc(CC(CNC(CCCc2ccccc2F)C(N)=O)NC(=O)[C@H](CC(=O)O)NC(=O)[C@H](CO)NC(=O)[C@@H](NC(=O)C(C)(Cc2ccccc2F)NC(=O)[C@@H](NC(=O)CNC(=O)[C@H](CCC(N)=O)NC(=O)C(C)(C)NC(=O)[C@H](Cc2c[nH]cn2)NC(=O)OC)[C@H](C)O)[C@H](C)O)cc1 (single isomer, unassigned) [compound 188]	5 ± 0.04	3 ± 0.15	1 ± 0.15	0	0
CCc1cc(OC)ccc1-c1ccc(CC(CNC(CCCc2ccccc2F)C(N)=O)NC(=O)[C@H](CC(=O)O)NC(=O)[C@H](CO)NC(=O)[C@@H](NC(=O)C(C)(Cc2ccccc2F)NC(=O)[C@@H](NC(=O)CNC(=O)[C@H](CCC(N)=O)NC(=O)C(C)(C)NC(=O)[C@@H](N)Cc2c[nH]cn2)[C@H](C)O)[C@H](C)O)cc1 (stereo partly shown) [compound 191] (H-H[Aib]QG[aThr][ξαMePhe(2-F)][aThr]SD-X4)	4 ± 0.05	2 ± 0.13	2 ± 0.12	0	0
CCc1cc(OC)ccc1-c1ccc(CC(CNC(CCCc2ccccc2)C(N)=O)NC(=O)[C@H](CC(=O)O)NC(=O)[C@H](CO)NC(=O)[C@@H](NC(=O)C(C)(Cc2ccccc2F)NC(=O)[C@@H](NC(=O)CNC(=O)[C@H](CCC(N)=O)NC(=O)C(C)(C)NC(=O)[C@@H](N)Cc2c[nH]cn2)[C@H](C)O)[C@H](C)O)cc1 (stereo partly shown) [compound 189] (H-H[Aib]QG[aThr][ξαMePhe(2-F)][aThr]SD-X7)	3 ± 0.12	1 ± 0.12	0	0	0
CCc1cc(OC)ccc1-c1ccc(CC(NC(=S)[C@H](CC(=O)O)NC(=O)[C@H](CO)NC(=O)[C@@H](NC(=O)C(C)(Cc2ccccc2F)NC(=O)[C@@H](NC(=O)CNC(=O)[C@H](CCC(N)=O)NC(=O)C(C)(C)NC(=O)[C@H](Cc2c[nH]cn2)NC(=O)OC)[C@@H](C)O)[C@@H](C)O)C(=S)NC(CCCc2ccccc2)C(N)=O)cc1 (single isomer, unassigned) [compound 170]	6 ± 0.05	5 ± 0.04	2 ± 0.16	0	0
CCc1cc(OC)ccc1-c1ccc(CC(NC(=O)[C@H](CC(=O)O)NC(=O)[C@H](CO)NC(=O)[C@@H](NC(=O)[C@H](Cc2ccccc2)NC(=O)[C@@H](NC(=O)CNC(=O)[C@H](CCC(N)=O)NC(=O)[C@H](CO)NC(=O)[C@@H](N)Cc2c[nH]cn2)[C@@H](C)O)[C@@H](C)O)C(=O)NC(CCCc2ccc(Cl)cc2Cl)C(N)=O)cc1 (stereo partly shown) [compound 51] (H-HSQGTFTSD[ξBip(2'-Et-4'-OMe)][X6]-NH2)	5 ± 0.09	3 ± 0.11	0	0	0
